Tested on: 1st-stage larvae of Haemonchus contortus
Assay: Test for effect on motion of larvae of Haemonchus nematode (Haemonchus contortus)
Type: cell-based
Conditions: 20 larvae per well, 27° C./95% RH for 4 days, corrected for DMSO negative control, duplicate
Method: Test for Effect on Motion of Larvae of Haemonchus Nematode (Haemonchus contortus)
The compound of the present invention was prepared as solutions in 100% DMSO at the final concentrations of 50 ppm, 5 ppm, 0.5 ppm, 0.05 ppm and 0.005 ppm. DMSO stands for dimethyl sulfoxide.
A larval suspension containing 1st-stage larvae of Haemonchus contortus harvested by the Baermann technique (for example, see K. Nakazono et al., “Inclination of Baermann funnel wall and efficiency of nematode extraction” Proc. Assoc. Pl. Prot. Kyushu 33; 126-130 (1987) was placed at a density of 20 larvae per well in a test place, and 0.5 μL/well of the test solution containing the compound of the present invention diluted to a predetermined concentration was added to the test plate. The plate was kept, under the conditions of 27° C./95% RH for 4 days. In the test, ivermectin was used for the positive control and DMSO was used for the negative control.
The motor ability of the larvae was examined with an automatic analyzer equipped with an LCD camera. The inhibitory effect on the motion of the larvae in each treatment plot was corrected based on the inhibitory effect in the plot treated with DMSO only for the negative control. The EC50 value was calculated from the data on the corrected inhibitory effect on the motion of the larvae, and graded according to the criteria shown below.
The test was conducted in duplicate per plot.

CC(CNC(=O)c1nccnc1C(F)(F)F)c1ccc(Oc2ncc(C(F)(F)F)cc2Cl)cc1Cl (racemic) [Compound 1-22]
EC50 value, inhibitory effect on the motion of the larvae (graded): C or higher

CC(CNC(=O)c1nccnc1C(F)(F)F)c1ccc(Oc2ccc(C(F)(F)F)cn2)cc1Cl (racemic) [Compound 1-23]
EC50 value, inhibitory effect on the motion of the larvae (graded): C or higher

CC(CNC(=O)c1nccnc1C(F)(F)F)c1ccc(Oc2ncc(Cl)cc2Cl)cc1Cl (racemic) [Compound 1-24]
EC50 value, inhibitory effect on the motion of the larvae (graded): C or higher

COC(CNC(=O)c1nccnc1C(F)(F)F)c1ccc(Oc2ncc(C(F)(F)F)cc2Cl)cc1Cl (racemic) [Compound 1-38]
EC50 value, inhibitory effect on the motion of the larvae (graded): C or higher

COC(CNC(=O)c1nccnc1C(F)(F)F)c1ccc(Oc2ccc(C(F)(F)F)cn2)cc1Cl (racemic) [Compound 1-39]
EC50 value, inhibitory effect on the motion of the larvae (graded): C or higher

COC(CNC(=O)c1nccnc1C(F)(F)F)c1ccc(Oc2ncc(Cl)cc2Cl)cc1Cl (racemic) [Compound 1-40]
EC50 value, inhibitory effect on the motion of the larvae (graded): C or higher

COC(CNC(=O)c1nccnc1C(F)(F)F)c1ccc(Oc2nc3ccccc3s2)cc1Cl (racemic) [Compound 1-41]
EC50 value, inhibitory effect on the motion of the larvae (graded): C or higher

COC(CNC(=O)c1nccnc1C(F)(F)F)c1ccc(Oc2cccnc2)cc1Cl (racemic) [Compound 1-45]
EC50 value, inhibitory effect on the motion of the larvae (graded): C or higher

O=C(NCCc1ccc(Oc2ccc(C(F)(F)F)cn2)cc1Cl)c1nccnc1C(F)(F)F [Compound 1-2]
EC50 value, inhibitory effect on the motion of the larvae (graded): C or higher

O=C(NCCc1ccc(Oc2ncc(Cl)cc2Cl)cc1Cl)c1nccnc1C(F)(F)F [Compound 1-3]
EC50 value, inhibitory effect on the motion of the larvae (graded): C or higher

O=C(NCCc1ccc(Oc2ncc(Br)cc2Cl)cc1Cl)c1nccnc1C(F)(F)F [Compound 1-4]
EC50 value, inhibitory effect on the motion of the larvae (graded): C or higher

O=C(NCCc1ccc(Oc2cnccn2)cc1Cl)c1nccnc1C(F)(F)F [Compound 1-7]
EC50 value, inhibitory effect on the motion of the larvae (graded): C or higher

COc1cc(OC)nc(Oc2ccc(CCNC(=O)c3nccnc3C(F)(F)F)c(Cl)c2)n1 [Compound 1-8]
EC50 value, inhibitory effect on the motion of the larvae (graded): C or higher

O=C(NCCc1ccc(Oc2ccnc(Cl)n2)cc1Cl)c1nccnc1C(F)(F)F [Compound 1-10]
EC50 value, inhibitory effect on the motion of the larvae (graded): C or higher

O=C(NCCc1ccc(Oc2cc(Cl)nc(Cl)n2)cc1Cl)c1nccnc1C(F)(F)F [Compound 1-11]
EC50 value, inhibitory effect on the motion of the larvae (graded): C or higher

Cc1cc(Oc2ccc(CCNC(=O)c3nccnc3C(F)(F)F)c(Cl)c2)nc(Cl)n1 [Compound 1-12]
EC50 value, inhibitory effect on the motion of the larvae (graded): C or higher

Cc1cnc(Cl)nc1Oc1ccc(CCNC(=O)c2nccnc2C(F)(F)F)c(Cl)c1 [Compound 1-13]
EC50 value, inhibitory effect on the motion of the larvae (graded): C or higher

O=C(NCCc1ccc(Oc2ccc3ccccc3n2)cc1Cl)c1nccnc1C(F)(F)F [Compound 1-15]
EC50 value, inhibitory effect on the motion of the larvae (graded): C or higher

O=C(NCCc1ccc(Oc2cnc3ccccc3n2)cc1Cl)c1nccnc1C(F)(F)F [Compound 1-16]
EC50 value, inhibitory effect on the motion of the larvae (graded): C or higher

O=C(NCCc1ccc(Oc2nc3ccccc3s2)cc1Cl)c1nccnc1C(F)(F)F [Compound 1-17]
EC50 value, inhibitory effect on the motion of the larvae (graded): C or higher

O=C(NCCc1ccc(Oc2nc3ccc(Cl)cc3s2)cc1Cl)c1nccnc1C(F)(F)F [Compound 1-18]
EC50 value, inhibitory effect on the motion of the larvae (graded): C or higher

O=C(NCCc1ccc(Oc2nc3ccccc3o2)cc1Cl)c1nccnc1C(F)(F)F [Compound 1-19]
EC50 value, inhibitory effect on the motion of the larvae (graded): C or higher

O=C(NCCc1ccc(Oc2ccc(C(F)(F)F)cc2)cc1Cl)c1nccnc1C(F)(F)F [Compound 1-21]
EC50 value, inhibitory effect on the motion of the larvae (graded): C or higher

CC(C)(CNC(=O)c1nccnc1C(F)(F)F)c1ccc(Oc2ncc(C(F)(F)F)cc2Cl)cc1Cl [Compound 1-25]
EC50 value, inhibitory effect on the motion of the larvae (graded): C or higher

CC(C)(CNC(=O)c1nccnc1C(F)(F)F)c1ccc(Oc2ccc(C(F)(F)F)cn2)cc1Cl [Compound 1-26]
EC50 value, inhibitory effect on the motion of the larvae (graded): C or higher

CC(C)(CNC(=O)c1nccnc1C(F)(F)F)c1ccc(Oc2ncc(Cl)cc2Cl)cc1Cl [Compound 1-27]
EC50 value, inhibitory effect on the motion of the larvae (graded): C or higher

O=C(NCC1(c2ccc(Oc3ncc(C(F)(F)F)cc3Cl)cc2Cl)CC1)c1nccnc1C(F)(F)F [Compound 1-28]
EC50 value, inhibitory effect on the motion of the larvae (graded): C or higher

O=C(NCC1(c2ccc(Oc3ccc(C(F)(F)F)cn3)cc2Cl)CC1)c1nccnc1C(F)(F)F [Compound 1-29]
EC50 value, inhibitory effect on the motion of the larvae (graded): C or higher

O=C(NCC1(c2ccc(Oc3ncc(Cl)cc3Cl)cc2Cl)CC1)c1nccnc1C(F)(F)F [Compound 1-30]
EC50 value, inhibitory effect on the motion of the larvae (graded): C or higher

O=C(NCCc1ccc(-c2ccc(C(F)(F)F)cc2)cc1Cl)c1nccnc1C(F)(F)F [Compound 1-31]
EC50 value, inhibitory effect on the motion of the larvae (graded): C or higher

O=C(NCCc1ccc(-c2cccc(C(F)(F)F)c2)cc1Cl)c1nccnc1C(F)(F)F [Compound 1-32]
EC50 value, inhibitory effect on the motion of the larvae (graded): C or higher

O=C(NCCc1ccc(-c2cc(F)cc(F)c2)cc1Cl)c1nccnc1C(F)(F)F [Compound 1-33]
EC50 value, inhibitory effect on the motion of the larvae (graded): C or higher

O=C(NCCc1ccc(-c2ccccc2)cc1Cl)c1nccnc1C(F)(F)F [Compound 1-35]
EC50 value, inhibitory effect on the motion of the larvae (graded): C or higher

O=C(NCCc1ccc(-c2ccncc2)cc1Cl)c1nccnc1C(F)(F)F [Compound 1-36]
EC50 value, inhibitory effect on the motion of the larvae (graded): C or higher

O=C(NCCc1ccc(-c2cccnc2)cc1Cl)c1nccnc1C(F)(F)F [Compound 1-37]
EC50 value, inhibitory effect on the motion of the larvae (graded): C or higher

Source: patent publication US20160362393A1, “EN[…] AGENT” (THE UNIVERSITY OF TOKYO, priority 2014, published 2016)
